Reference: patent US20260325521A1, “TREATMENT OF IDIOPATHIC PULMONARY FIBROSIS WITH ENSIFENTRINE” (Verona Pharma Limited, priority 2022, published 2026)
“Also recorded” adds a separate entry of the source.

How the values were obtained:
Assay type in all cases: in vivo
[1] = system: IL-6; experiment: Clinical study in COPD patients: change in blood IL-6 with inhaled ensifentrine compared with placebo; details: inhaled by nebuliser, 3 mg BID, 24 weeks, FIG. 1
Protocol: (§1) A clinical study was conducted to determine the efficacy of ensifentrine in treating COPD compared with placebo. Ensifentrine was administered by nebuliser at a dose of 3 mg twice daily (BID) for 24 weeks. The study was a multi-centre, randomized, double-blind, parallel-group, placebo-controlled trial with around 800 patients and 5:3 randomization.
(§2) The study population included patients aged 40-80 years with moderate to severe COPD (FEV1 30%-70% p.n., FEV1/forced vital capacity (FVC) ratio <0.7, with mMRC ≥2). The randomization stratified (a) the use of stable background maintenance LAMA or LABA therapy use (approx. 50%. yes or no) and (b) cigarette smoking (current or former). Inhaled corticosteroid (ICS) maintenance therapy was permitted in up to 20% of patients under certain provisions.
(§3) The effect of ensifentrine on the change in blood IL-6 and IL-8 was measured.
(§4) The investigational product and placebo were provided in 2.5 mL unit dose format in an ampule and administered via a nebuliser.

[2] = system: IL-8; experiment: Clinical study in COPD patients: change in blood IL-8 with inhaled ensifentrine compared with placebo; details: inhaled by nebuliser, 3 mg BID, 24 weeks, FIG. 1
Protocol: as §1, §2, §3, §4

[3] = system: bleomycin-induced lung fibrosis; experiment: Rodent model of bleomycin-induced lung fibrosis (Example 2); details: rodents, inhalation; dose and period not given; histological fibrotic area
Protocol: The anti-fibrotic activity of ensifentrine is assessed using a rodent model of bleomycin-induced lung fibrosis.
Bleomycin is administered to anaesthetised rodents to induce lung fibrosis. Ensifentrine is then administered to the test rodents by inhalation for a period, and the rodents are subsequently killed. Lung samples are obtained for histological studies to determine fibrotic area.

[4] = system: inflammatory cell and macrophage infiltration into the rat airways; experiment: Bleomycin-induced pulmonary fibrosis in rats: BAL differential cell counts
Protocol: (§5) An in vivo study was conducted to determine the efficacy of ensifentrine in the treatment of bleomycin-induced pulmonary fibrosis in rats in comparison to a control. Rats were administered bleomycin to induce pulmonary fibrosis. After a week, they then received a daily inhaled dosage of ensifentrine or a control over a period of two weeks. At the end of the two weeks, the rats were sacrificed and their airways were analysed for Bronchoalveolar lavage (BAL) differential cell counts and TGF-β concentration.
(§6) The BAL differential cell count provided a total inflammatory cell count so that changes in inflammation following treatment could be observed. TGF-β is a key cytokine in the development of tissue fibrosis. Macrophages and other immune cells produce TGF-β, which induces the differentiation of fibroblasts to myofibroblasts and increases TGF-β expression. Overexpression of active TGF-β1 in the lungs of rodents causes severe and progressive tissue fibrosis, including fibroblastic foci and honeycomb formation.
(§7) At day 0, the rats were subjected to an intratracheal challenge of either 0.9% w/v saline or bleomycin, the latter used to induce pulmonary fibrosis.
(§8) Starting on day 7, two groups of 12 rats from the bleomycin challenge group were administered an inhaled dose of ensifentrine at either 3 mg/kg (Experiment 1) or 10 mg/kg (Experiment 2) on a daily basis for two weeks, terminating on day 21. The ensifentrine was administered as a suspension in the vehicle suspension article.
(§9) Two control experiments were also conducted. Control 1 subjected 12 rats from the saline challenge group to daily administration of the vehicle suspension article via inhalation for the full 21 days. Control 2 subjected 12 rats from the bleomycin challenge group to daily administration of the vehicle suspension article via inhalation for the full 21 days.
(§10) At the end of the 21-day period, the rats were sacrificed and the BAL differential cell counts and the TGF-β concentration data were collected.

[5] = system: TGF-β; experiment: Bleomycin-induced pulmonary fibrosis in rats: TGF-β concentration
Protocol: as §5, §6, §7, §8, §9, §10
An in vivo study was conducted to compare the efficacy of ensifentrine and nintedanib in the treatment of bleomycin-induced pulmonary fibrosis in rats. Following the same initial experimental procedure as in Example 3, 12 rats from the bleomycin challenge group were administered a daily dose of 100 mg/kg of nintedanib via an oral gavage for two weeks, starting from day 7 (Experiment 3). A new control experiment was also conducted (Control 3), administering the vehicle suspension article orally in an aqueous solution.
At day 21, the rats were sacrificed and their airways were analysed to calculate the TGF-β concentration. The results were compared to those of Experiments 1 and 2 (Example 3).

[6] = system: bleomycin-induced pulmonary fibrosis; experiment: Efficacy in treatment of bleomycin-induced pulmonary fibrosis in rats (overall); details: inhalation, 3 mg/kg and 10 mg/kg
Protocol: as §5, §7, §8
Two control experiments were also conducted. Control 1 subjected 12 rats from the saline challenge group to daily administration of the vehicle suspension article via inhalation for the full 21 days. Control 2 subjected 12 rats from the bleomycin challenge group to daily administration of the vehicle suspension article via inhalation for the full 21 days. […]

[7] = Diarrhoea as side effect of inhaled ensifentrine in patients
[8] = inhaled 3 mg/kg/day QD from day 7, day 21, vs bleomycin Control 2 (Experiment 1)
[9] = inhaled 10 mg/kg/day QD from day 7, day 21, vs bleomycin Control 2 (Experiment 2)

## COc1cc2c(cc1OC)-c1c/c(=N\c3c(C)cc(C)cc3C)n(CCNC(N)=O)c(=O)n1CC2 [ensifentrine, N-(2-{(2E)-9,10-dimethoxy-4-oxo-2-[(2,4,6-trimethylphenyl)imino]-6,7-dihydro-2H-pyrimido[6,1-a]isoquinolin-3(4H)-yl}ethyl)urea]
[1]
  blood IL-6: reduce blood IL-6; also recorded: reduction in blood IL-6
[2]
  blood IL-8: reduce blood IL-6 and IL-8; also recorded: reduction in blood IL-6 and IL-8
[3]
  anti-fibrotic effect in bleomycin-induced lung fibrosis: anti-fibrotic effect
[4]; inhaled 3 mg/kg QD from day 7, day 21 (Experiment 1)
  BAL differential cell count: reduction in BAL differential cell count
[4]; [8]
  macrophage infiltration into the airways (BAL differential cell counts): reduction in total inflammatory cell and macrophage infiltration
  total inflammatory cell infiltration into the airways (BAL differential cell counts): reduction in total inflammatory cell
[4]; inhaled 10 mg/kg QD from day 7, day 21 (Experiment 2)
  BAL differential cell count: reduction in BAL differential cell count
[4]; [9]
  macrophage infiltration into the airways (BAL differential cell counts): reduction in total inflammatory cell and macrophage infiltration
  total inflammatory cell infiltration into the airways (BAL differential cell counts): reduction in total inflammatory cell
[5]; day 21, inhaled ensifentrine 3 mg/kg/day (Experiment 1) vs oral nintedanib 100 mg/kg/day (Experiment 3)
  TGF-β concentration in the rat lungs compared with nintedanib: lower than the TGF-β concentration following treatment with nintedanib; also recorded: greater reduction in TGF-β concentration than orally administered nintedanib
[5]; day 21, inhaled ensifentrine 10 mg/kg/day (Experiment 2) vs oral nintedanib 100 mg/kg/day (Experiment 3)
  TGF-β concentration in the rat lungs compared with nintedanib: lower than the TGF-β concentration following treatment with nintedanib; also recorded: greater reduction in TGF-β concentration than orally administered nintedanib
[5]; [8]
  TGF-β concentration: lower; also recorded: reduction in BAL differential cell count and TGF-β concentration
[5]; [9]
  TGF-β concentration: lower; also recorded: reduction in BAL differential cell count and TGF-β concentration
[6]
  efficacy in the treatment of bleomycin-induced pulmonary fibrosis: effective
[7]
  diarrhoea (side effect): avoid side effects such as diarrhoea; also recorded: not to be associated with diarrhoea
